Data on 17 compounds can be found in ChEMBL document CHEMBL1146691, “Conformationally-flexible benzamide analogues as dopamine D3 and sigma 2 receptor ligands” (Bioorg Med Chem Lett, 2004).

Test [1] addresses D(3) dopamine receptor (Rattus norvegicus, UniProt P19020). The test is described as follows: biochemical.
Test [2] concerns the target D(2) dopamine receptor (Rattus norvegicus, UniProt P61169). The test is described as follows: biochemical.
Test [3] addresses Sigma 2 receptor.
Test [4] deals with T1, D(4) dopamine receptor (Homo sapiens, UniProt P21917).
T1 sequence (P21917 whole entry): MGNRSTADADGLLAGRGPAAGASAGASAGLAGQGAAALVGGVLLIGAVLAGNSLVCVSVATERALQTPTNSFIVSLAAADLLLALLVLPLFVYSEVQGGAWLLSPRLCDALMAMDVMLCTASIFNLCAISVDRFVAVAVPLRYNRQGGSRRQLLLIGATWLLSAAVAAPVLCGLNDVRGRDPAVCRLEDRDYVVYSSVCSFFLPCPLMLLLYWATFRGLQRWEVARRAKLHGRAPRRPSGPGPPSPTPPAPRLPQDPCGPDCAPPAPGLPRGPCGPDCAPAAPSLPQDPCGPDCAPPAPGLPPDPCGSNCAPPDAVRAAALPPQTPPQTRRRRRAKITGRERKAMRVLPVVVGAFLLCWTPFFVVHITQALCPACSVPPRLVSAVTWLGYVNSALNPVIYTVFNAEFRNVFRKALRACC

D(2) dopamine receptor, sequence (P61169 whole entry): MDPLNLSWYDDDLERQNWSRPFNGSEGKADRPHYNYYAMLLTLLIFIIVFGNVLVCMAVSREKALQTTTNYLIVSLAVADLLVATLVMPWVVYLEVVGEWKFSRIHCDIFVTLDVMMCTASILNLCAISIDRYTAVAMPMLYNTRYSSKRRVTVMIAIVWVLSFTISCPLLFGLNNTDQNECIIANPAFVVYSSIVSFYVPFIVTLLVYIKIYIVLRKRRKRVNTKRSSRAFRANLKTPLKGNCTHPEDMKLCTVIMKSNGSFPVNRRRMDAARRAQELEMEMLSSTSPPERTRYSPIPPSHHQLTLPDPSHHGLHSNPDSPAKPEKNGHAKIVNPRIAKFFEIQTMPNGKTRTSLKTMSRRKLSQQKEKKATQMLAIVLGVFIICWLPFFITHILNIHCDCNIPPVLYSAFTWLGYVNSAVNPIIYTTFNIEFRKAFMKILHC
D(3) dopamine receptor, sequence (P19020 whole entry): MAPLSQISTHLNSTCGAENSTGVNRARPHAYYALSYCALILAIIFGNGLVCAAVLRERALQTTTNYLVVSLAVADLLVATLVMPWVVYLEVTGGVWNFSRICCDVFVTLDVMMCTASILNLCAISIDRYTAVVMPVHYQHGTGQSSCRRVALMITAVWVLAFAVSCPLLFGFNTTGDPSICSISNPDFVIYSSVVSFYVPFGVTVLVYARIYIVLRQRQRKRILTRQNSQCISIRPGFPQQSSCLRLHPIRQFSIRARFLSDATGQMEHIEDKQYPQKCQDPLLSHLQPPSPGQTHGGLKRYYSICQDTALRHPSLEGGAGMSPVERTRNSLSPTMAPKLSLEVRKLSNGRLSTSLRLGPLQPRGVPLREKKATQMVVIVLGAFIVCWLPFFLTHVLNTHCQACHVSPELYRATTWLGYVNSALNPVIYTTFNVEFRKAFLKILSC

A word on the Ki: it is a dissociation constant, usually derived from enzyme kinetics or from competition with a known ligand. A higher Ki goes with lower affinity. Consider `O=C(NCCCCN1CCN(c2cccc(Cl)c2Cl)CC1)c1ccc2c(c1)Cc1ccccc1-2`, for which the inhibitory constant (Ki) in test [1] was 1.4 nM; in test [2], 217 nM.

Take `COc1ccc(Br)cc1C(=O)NCCN1CCc2ccccc2C1`: the affinity in test [3], expressed as Ki, was 89.4 nM. That is a double-digit nanomolar value. In the case of `O=C(NCCCCN1CCN(c2cccc(Cl)c2Cl)CC1)c1cccc2c1-c1ccccc1C2=O`, the figures for the Ki in test [1] and in test [2] were 1.4 nM and 89 nM, respectively. In turn, `COc1cc2c(cc1OC)CN(CCNC(=O)c1cc(C)ccc1OC)CC2` returned a Ki in test [3] of 13.3 nM. As for `COc1c(C(=O)NC2CCN(C3C4CC5CC(C4)CC3C5)C2)cc(Br)c2ccccc12` (stereo unspecified), the results for the Ki in test [3] and in test [1] were 70 nM and 0.4 nM, respectively. Take `COc1cc(Br)cc(C(=O)NCCCCN2CCN(c3cccc(Cl)c3Cl)CC2)c1OC`: the inhibitory constant (Ki) in test [4] came to 800 nM; in test [3], 75 nM. Turning to `COc1c(C(=O)NCCN2CCN(c3cccc(Cl)c3Cl)CC2)cc(Br)c2ccccc12`, the Ki in test [1] is 8 nM; in test [2] it was more than 10000 nM. `COc1cc2c(cc1OC)CN(CCNC(=O)c1cc(Br)c3ccccc3c1OC)CC2` had a Ki in test [3] of 21.2 nM. Take `COc1cc2c(cc1OC)CN(Cc1ccc(-c3cc(Br)cc(OC)c3OC)[nH]1)CC2`: the inhibition constant (Ki) in test [1] came out at 3.9 nM; in test [2], 33 nM. As to `COc1cc2c(cc1OC)CN(CCCCNC(=O)c1cc(Br)cc(OC)c1OC)CC2`, the Ki in test [3] was 8.2 nM. In the case of `COc1cc(Br)cc(C(=O)NCCN2CCc3ccccc3C2)c1OC`, the Ki in test [4] turned out to be 47.9 nM; in test [3], 716 nM. With `COc1cc2c(cc1OC)CN(CCCCNC(=O)c1cc(Br)c3ccccc3c1OC)CC2`, the affinity in test [3], expressed as Ki, was 17.6 nM.

Regarding `COc1cc2c(cc1OC)CN(CCNC(=O)c1cc(Br)ccc1OC)CC2`, in test [3], the Ki stood at 12.4 nM. With `COc1cc(Br)cc(-c2ccc(CN3CCc4ccccc4C3)[nH]2)c1OC`, the Ki in test [1] worked out at 3.8 nM; in test [2], 30 nM. `COc1c(C(=O)NC[C@H]2CCCN2C2CCCCC2)cc(Br)c2ccccc12` showed a Ki in test [3] of 25 nM. On the same count and under the same terms, with `COc1c(C(=O)NCCN2CCc3ccccc3C2)cc(Br)c2ccccc12` the figure was 47.7 nM. In the case of `COc1cc2c(cc1OC)CN(CCNC(=O)c1cc(Br)cc(OC)c1OC)CC2`, the inhibition constant Ki in test [4] was found to be 265 nM; in test [3] it was 16.4 nM.
